PubChem BioAssay AID2060496 (Molecular Pharmacology Branch, DTP, NCI, 2025)

Tested on: 276233-004-R-J1-PDC complex spheroid viability
Experiment: Anticancer human tumor 276233-004-R-J1-PDC patient-derived colon adenocarcinoma cell line growth inhibition [GQUAD]
Conditions: for IC50: curve of first compound; for viability, T/C: stronger effect = lower value
In short: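 Tumor cells were grown as complex spheroids with HUVEC endothelial cells and mesenchymal stem cells as stroma. G-quadruplex stabilizers were combined with targeted agents over half-log dilutions from near the clinical Cmax, or from 10 microM.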

[1] = second compound 0.0316 µM, first compound 0.0316 µM
[2] = second compound 0.0316 µM, first compound 0.1 µM
[3] = second compound 0.0316 µM, first compound 0.316 µM
[4] = second compound 0.0316 µM, first compound 1 µM
[5] = second compound 0.0316 µM, first compound 3.16 µM
[6] = second compound 0.0316 µM, first compound 10 µM
[7] = second compound 0.1 µM, first compound 0.0316 µM
[8] = second compound 0.1 µM, first compound 0.1 µM
[9] = second compound 0.1 µM, first compound 0.316 µM
[10] = second compound 0.1 µM, first compound 1 µM
[11] = second compound 0.1 µM, first compound 3.16 µM
[12] = second compound 0.1 µM, first compound 10 µM
[13] = second compound 0.316 µM, first compound 0.0316 µM
[14] = second compound 0.316 µM, first compound 0.1 µM
[15] = second compound 0.316 µM, first compound 0.316 µM
[16] = second compound 0.316 µM, first compound 1 µM
[17] = second compound 0.316 µM, first compound 3.16 µM
[18] = second compound 0.316 µM, first compound 10 µM
[19] = second compound 1 µM, first compound 0.0316 µM
[20] = second compound 1 µM, first compound 0.1 µM
[21] = second compound 1 µM, first compound 0.316 µM
[22] = second compound 1 µM, first compound 1 µM
[23] = second compound 1 µM, first compound 3.16 µM
[24] = second compound 1 µM, first compound 10 µM
[25] = second compound 3.16 µM, first compound 0.0316 µM
[26] = second compound 3.16 µM, first compound 0.1 µM
[27] = second compound 3.16 µM, first compound 0.316 µM
[28] = second compound 3.16 µM, first compound 1 µM
[29] = second compound 3.16 µM, first compound 3.16 µM
[30] = second compound 3.16 µM, first compound 10 µM
[31] = second compound 10 µM, first compound 0.0316 µM
[32] = second compound 10 µM, first compound 0.1 µM
[33] = second compound 10 µM, first compound 0.316 µM
[34] = second compound 10 µM, first compound 1 µM
[35] = second compound 10 µM, first compound 3.16 µM
[36] = second compound 10 µM, first compound 10 µM
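Note: spheroids exposed to drugs for seven days.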
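Throughout, for viability, T/C: 100% = DMSO vehicle control viability.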

Cc1cccc(N(C)C(=O)C2C(O)CCN2c2nc(C)cc(C(F)(F)F)c2C#N)c1 (stereo unspecified) + Cc1cnc(CNC(=O)c2c(=O)c3ccc(N4CCCN(C)CC4)nc3n3c2sc2ccccc23)cn1
IC50 (second compound 0.0316 µM): > 10 µM
IC50 (second compound 0.1 µM): > 10 µM
IC50 (second compound 0.316 µM): > 10 µM
IC50 (second compound 1 µM): > 10 µM
IC50 (second compound 3.16 µM): > 10 µM
IC50 (second compound 10 µM): > 10 µM
viability, T/C [1]: 89.8%
viability, T/C [2]: 75.8%
viability, T/C [3]: 90.8%
viability, T/C [4]: 84.7%
viability, T/C [5]: 98.8%
viability, T/C [6]: 92.8%
viability, T/C [7]: 75.4%
viability, T/C [8]: 78.2%
viability, T/C [9]: 80.1%
viability, T/C [10]: 88.6%
viability, T/C [11]: 80.2%
viability, T/C [12]: 82.5%
viability, T/C [13]: 77.2%
viability, T/C [14]: 72.1%
viability, T/C [15]: 81.9%
viability, T/C [16]: 76.4%
viability, T/C [17]: 86.4%
viability, T/C [18]: 84.8%
viability, T/C [19]: 73.5%
viability, T/C [20]: 79.1%
viability, T/C [21]: 85.6%
viability, T/C [22]: 79.5%
viability, T/C [23]: 77.6%
viability, T/C [24]: 87.4%
viability, T/C [25]: 65.7%
viability, T/C [26]: 69.8%
viability, T/C [27]: 70%
viability, T/C [28]: 56.6%
viability, T/C [29]: 79%
viability, T/C [30]: 71%
viability, T/C [31]: 69.9%
viability, T/C [32]: 63.3%
viability, T/C [33]: 73.9%
viability, T/C [34]: 69%
viability, T/C [35]: 66.5%
viability, T/C [36]: 79.3%

Cn1ncnc1[C@H]1c2n[nH]c(=O)c3cc(F)cc(c23)N[C@@H]1c1ccc(F)cc1 + Cc1cnc(CNC(=O)c2c(=O)c3ccc(N4CCCN(C)CC4)nc3n3c2sc2ccccc23)cn1
IC50 (second compound 0.0316 µM): > 0.316 µM
IC50 (second compound 0.1 µM): > 0.316 µM
IC50 (second compound 0.316 µM): > 0.316 µM
IC50 (second compound 1 µM): > 0.316 µM
IC50 (second compound 3.16 µM): > 0.316 µM
IC50 (second compound 10 µM): > 0.316 µM
viability, T/C (second compound 0.0316 µM, first compound 0.000999 µM): 94.8%
viability, T/C (second compound 0.0316 µM, first compound 0.00316 µM): 72.2%
viability, T/C (second compound 0.0316 µM, first compound 0.00999 µM): 79.9%
viability, T/C [1]: 82.6%
viability, T/C (second compound 0.0316 µM, first compound 0.0999 µM): 82.9%
viability, T/C [3]: 83.8%
viability, T/C (second compound 0.1 µM, first compound 0.000999 µM): 92.2%
viability, T/C (second compound 0.1 µM, first compound 0.00316 µM): 85.1%
viability, T/C (second compound 0.1 µM, first compound 0.00999 µM): 73%
viability, T/C [7]: 78.3%
viability, T/C (second compound 0.1 µM, first compound 0.0999 µM): 89.2%
viability, T/C [9]: 87.3%
viability, T/C (second compound 0.316 µM, first compound 0.000999 µM): 78.6%
viability, T/C (second compound 0.316 µM, first compound 0.00316 µM): 91.9%
viability, T/C (second compound 0.316 µM, first compound 0.00999 µM): 86.4%
viability, T/C [13]: 82.8%
viability, T/C (second compound 0.316 µM, first compound 0.0999 µM): 80.8%
viability, T/C [15]: 78.2%
viability, T/C (second compound 1 µM, first compound 0.000999 µM): 70.3%
viability, T/C (second compound 1 µM, first compound 0.00316 µM): 65.9%
viability, T/C (second compound 1 µM, first compound 0.00999 µM): 80.1%
viability, T/C [19]: 74.4%
viability, T/C (second compound 1 µM, first compound 0.0999 µM): 88.5%
viability, T/C [21]: 69.2%
viability, T/C (second compound 3.16 µM, first compound 0.000999 µM): 69.5%
viability, T/C (second compound 3.16 µM, first compound 0.00316 µM): 71.5%
viability, T/C (second compound 3.16 µM, first compound 0.00999 µM): 61.2%
viability, T/C [25]: 67.5%
viability, T/C (second compound 3.16 µM, first compound 0.0999 µM): 70.7%
viability, T/C [27]: 62.8%
viability, T/C (second compound 10 µM, first compound 0.000999 µM): 68.4%
viability, T/C (second compound 10 µM, first compound 0.00316 µM): 59.1%
viability, T/C (second compound 10 µM, first compound 0.00999 µM): 64.8%
viability, T/C [31]: 71.8%
viability, T/C (second compound 10 µM, first compound 0.0999 µM): 66.2%
viability, T/C [33]: 63.5%

O=C(c1cc(Cc2n[nH]c(=O)c3ccccc23)ccc1F)N1CCN(C(=O)C2CC2)CC1 + Cc1cnc(CNC(=O)c2c(=O)c3ccc(N4CCCN(C)CC4)nc3n3c2sc2ccccc23)cn1
IC50 (second compound 0.0316 µM): > 10 µM
IC50 (second compound 0.1 µM): > 10 µM
IC50 (second compound 0.316 µM): > 10 µM
IC50 (second compound 1 µM): > 10 µM
IC50 (second compound 3.16 µM): > 10 µM
IC50 (second compound 10 µM): > 10 µM
viability, T/C [1]: 80.1%
viability, T/C [2]: 85%
viability, T/C [3]: 89.3%
viability, T/C [4]: 79.3%
viability, T/C [5]: 90.8%
viability, T/C [6]: 91.6%
viability, T/C [7]: 81.1%
viability, T/C [8]: 92.8%
viability, T/C [9]: 82.2%
viability, T/C [10]: 83.8%
viability, T/C [11]: 85.5%
viability, T/C [12]: 83%
viability, T/C [13]: 96%
viability, T/C [14]: 91.4%
viability, T/C [15]: 83.4%
viability, T/C [16]: 81.8%
viability, T/C [17]: 96.7%
viability, T/C [18]: 73.5%
viability, T/C [19]: 69.9%
viability, T/C [20]: 77.1%
viability, T/C [21]: 91.2%
viability, T/C [22]: 75.5%
viability, T/C [23]: 83.8%
viability, T/C [24]: 67.3%
viability, T/C [25]: 76.9%
viability, T/C [26]: 70%
viability, T/C [27]: 61.1%
viability, T/C [28]: 68.4%
viability, T/C [29]: 77.2%
viability, T/C [30]: 72.7%
viability, T/C [31]: 74.5%
viability, T/C [32]: 68.1%
viability, T/C [33]: 80.2%
viability, T/C [34]: 62.5%
viability, T/C [35]: 77.8%
viability, T/C [36]: 53.2%
